Measurements from patent US11555031B2, “Compounds and methods for regulating insulin secretion” (The Broad Institute, Inc., priority 2017, dated 2023).

Tests used:
INS-1E cells = test: Luciferase Insulin Secretion Assay (proinsulin-Gaussia luciferase reporter); assay type: cell-based, rat
From the text: A high-throughput luminescent insulin secretion assay was developed and performed to identify compounds that amplified insulin secretion only in the presence of a permissive glucose environment (FIG. 3). The assay used in compound screening is described in International Patent Publication No. WO2013070796A3, PCT/US2012/063982, and in Burns et al., High-Throughput Luminescent Reporter of Insulin Secretion for Discovering Regulators of Pancreatic Beta-Cell Function. Cell Metab. 2015 Jan. 6; 21(1):126-37.
The assay is a luminescent insulin secretion assay created by inserting Gaussia luciferase within the C-peptide portion of the insulin prohormone. Gaussia luciferase was chosen because of its small size and bright luciferase signal. To ensure full activity of the luciferase, a version was used that was codon-optimized for expression in mammalian cells. The enzyme was flanked with additional cleavage sites for prohormone convertase 2 (PC2), such that no extra amino acids should be present on the ends of the enzyme after processing within the vesicles (FIG. 4). Rat (INS-1E; Merglen et al., 2004) beta-cell lines stably expressing the reporter construct were generated. Assays using this cell type are referred to herein as Luciferase Insulin Secretion Assay.
A search for glucose-dependent insulin secretagogues was conducting by screening 384,216 compounds at a single concentration (10 μM) in duplicate using the Luciferase Insulin Secretion Assay, to identify those that increase insulin secretion only in the presence of high glucose (11.1 mM) (FIG. 6). These assays were performed in 1536 well format. A Z′ factor of 0.35 was obtained with respect the positive control (300 μM IBMX). The cutoff value selected was 45% activation, which was 3-4 standard deviations above background (solid uppermost line; FIG. 6).
For standard secretion assays, INS-1E cells were plated in 96-well format, preincubated for 1 hr in Krebs Ringer Buffer (KRB) with 2.8 mM glucose, and then stimulated for 1 hr in fresh KRB containing varying amounts of glucose and compounds. Insulin or C-peptide concentration was determined using an ELISA (Mercodia), following the manufacturer's protocol. Luciferase activity was determined from the same samples by adding the coelenterazine substrate to the supernatant to a final concentration of 10 μM and reading on a standard plate reader (BioTek).
INS-1E cells were expanded to 80% confluence in their growth medium, washed once in PBS, and preincubated for 1 hr at 37° C. in KRB with 2.8 mM glucose. Cells were then dissociated, spun at 300×g for 2 min, resuspended in fresh KRB without glucose, and filtered through 40 μm mesh (Becton Dickinson). Next, the cells were counted and diluted in KRB to 1×10^6 cells per ml, and glucose was added as required for each experiment. Cells were then seeded in 384-well format, 3×10^4 cells in 30 μl per well, using a Multidrop Combi device (Thermo Scientific). Compounds were pinned into each well using a Vario robot (CyBio) to a final concentration of 30 μM, and the plates were then incubated for 2 hr at 37° C. For assays involving a transfer step, the plates were then centrifuged at 300×g for 2 min, and 20 μl of supernatant was transferred to a new 384-well plate. Coelenterazine substrate was then added to a final concentration of 10 μM, and luciferase activity was determined using a standard plate reader (BioTek).

[1] = Solubility (medicinal chemistry measurements); assay type: physicochemical; settings: relative to Compound 8
alpha-TC-1-6 = test: Luminescent glucagon secretion assay in alpha-cell line; assay type: cell-based; settings: compared with DMSO negative control
Protocol: FIG. 10 depicts the quantification of α-cell secretory activity in cells treated with DMSO, KCl, or Compound 8, using a luminescent assay for glucagon secretion.
To investigate the cell-type specificity of the compound, and to exclude the possibility that Compound 8 acts as a generic secretagogue, the compound was tested on secretion from a rodent alpha-cell line, “alpha-TC-1-6,” using a luciferase reporter for glucagon secretion that mirrors the insulin secretion assay (FIG. 10).

Plasma stability, mouse = assay type: in vitro ADME
Protocol: (§1) Measurements were performed on human, mouse (CD-1) and rat (SD) microsomes to determine the t1/2, the plasma protein binding (“PPB”) and the plasma stability (“PS”).

Plasma stability, rat = assay type: in vitro ADME
Protocol: as §1

Plasma stability, human = assay type: in vitro ADME
Protocol: as §1

Question: Which EC50 (INS-1E cells; Rattus norvegicus, INS-1E, glucose concentration of 16.7 mM) does the source give for `Cc1cccc(NC(=O)c2ccc(OCc3c(C)cncc3C)cc2)c1C` [Compound 49, N-(2,3-Dimethyl-phenyl)-4-(3,5-dimethyl-pyridin-4-ylmethoxy)-benzamide] here?
Answer: Its EC50 is ~0.082 µM.

Question: And the Activity (INS-1E cells; glucose dependence of insulin secretion, Z-score in the presence of 16.7 mM glucose)?
Answer: The Activity was “Inactive”.

Question: What about the solubility [1] of the same compound?
Answer: The solubility was “lower solubility than Compound 8”.

Question: With `[Cl-].[K+]` [KCl, potassium chloride, reference compound] as the compound, how does the “alpha-cell secretory activity (luciferase reporter for glucagon secretion)” value (alpha-TC-1-6) read?
Answer: Its value is “causes secretion”.

Question: Which “glucose-dependent (glucose-stimulated) insulin secretion, luciferase reporter” value (INS-1E cells; INS-1E cells, 2.8 mM vs 16.7 mM glucose) does the source give for `COc1ccc(CCc2nc3cc(-c4c(C)noc4C)ccc3n2C[C@H](C)N2CCOCC2)cc1Cl` [SGC-CBP30, reference compound] here?
Answer: The value was “None of the compounds assayed increased glucose-dependent insulin secretion”.

Question: What about the “effect on glucose-stimulated insulin secretion at high concentrations” value (INS-1E cells; INS-1E cells, high compound concentrations) of the same compound?
Answer: The value was “inhibitory effects”.

Question: With `CC1CC(OC(=O)C(O)c2ccccc2)CC(C)(C)N1C` (stereo not drawn) [eucatropine, reference compound] as the compound, how does the PS (Plasma stability, mouse) read?
Answer: The PS was 24.6 % remaining.

Question: And the PS (Plasma stability, rat)?
Answer: Its PS is 32.4 % remaining.

Question: And the PS (Plasma stability, human)?
Answer: Its PS is 1.1 % remaining.
